Results: patent publication US20030166645A1, “Novel nitrofuran-containing heterocyclic compounds and uses thereof” (priority 2001, published 2003)
Converted amounts (≈) assume the structure as drawn. Where two headings read alike, the source gives them in different places.

Columns and labels:
Bacteroides fragilis [1] = experiment: Antimicrobial agar dilution test of anaerobic bacteria (MIC); assay type: cell-based; conditions: 48 h
Bacteroides vulgatus = experiment: as above; assay type: cell-based; conditions: 48 h
[2] = test system: Bacteroides thetaiotaomicron; assay type: cell-based; conditions: agar dilution, anaerobic, 48 h
S. aureus = experiment: Systemic bacterial infection model, mice infected with S. aureus
Bacteroides fragilis [3] = assay type: cell-based
Clostridium perfringens = assay type: cell-based; conditions: disk 200 μg, anaerobic, 24-48 h
S cerevisiae = experiment: Microdilution antimicrobial susceptibility test (MIC); assay type: cell-based; conditions: broth microdilution, 18-24 h, MIC = 90% inhibition of growth; for MIC: read-out: MIC S cerevisiae MIC7
Peptostreptococcus sp = assay type: cell-based
S pneumoniae = experiment: Microdilution antimicrobial susceptibility test (MIC); assay type: cell-based; conditions: broth microdilution, 18-24 h, CO2-enriched atmosphere, MIC = 90% inhibition of growth; for MIC: read-out: MIC S pneumoniae MIC6
P aeruginosa = experiment: as above; assay type: cell-based; conditions: broth microdilution, 18-24 h, MIC = 90% inhibition of growth; for MIC: read-out: MIC P aeruginosa MIC2
E faecalis = experiment: as above; assay type: cell-based; conditions: broth microdilution, 18-24 h, MIC = 90% inhibition of growth; for MIC: read-out: MIC E faecalis MIC2
M. catarrhalis = experiment: as above; assay type: cell-based; conditions: broth microdilution, 18-24 h, MIC = 90% inhibition of growth; for MIC: Moraxella catarrhalis, read-out: MIC M. catarrhalis MIC2
E. coli = experiment: Systemic bacterial infection model, mice infected with E. coli
H influenzae = experiment: Microdilution antimicrobial susceptibility test (MIC); assay type: cell-based; conditions: broth microdilution, 18-24 h, MIC = 90% inhibition of growth; for MIC: read-out: MIC H influenzae MIC4
E coli = experiment: as above; assay type: cell-based; conditions: broth microdilution, 18-24 h, MIC = 90% inhibition of growth; for MIC: read-out: MIC E coli MIC2
S aureus = experiment: as above; assay type: cell-based; conditions: broth microdilution, 18-24 h, MIC = 90% inhibition of growth; for MIC: read-out: MIC S aureus MIC2
E coli (ImpA) = experiment: as above; assay type: cell-based; conditions: broth microdilution, 18-24 h, MIC = 90% inhibition of growth; for MIC: read-out: MIC E coli (ImpA) MIC9
Description: Microdilution Antimicrobial Susceptibility Test Assay
Stock solutions of tested compounds were prepared in N,N-dimethylformamide (DMF) at a concentration of 5 mg/mL. Working solutions of the tested compounds were then prepared from the stock solutions, in Mueller-Hinton broth (MHB) with a starting concentration of 64 μg/mL.
Bacterial inocula were prepared from overnight culture (i.e., one fresh colony from agar plate in 5 ml MHB; H. influenzae was grown in MHB with the addition of yeast extract, haematin, and NAD), centrifuged 2×5 min/3000 rpm (for S. pneumoniae and H. influenzae, 2×10 min/3000 rpm), and dispensed in 5 ml of fresh MHB each time, such that the bacterial suspension is diluted to obtain 100 colony forming units (cfu) in a microplate well (100 μl total volume).
Microplate wells were filled with two-fold dilutions of test compound (50 Al), starting with 64 μg/ml. Wells were then filled with 50 μl of bacterial inoculum (final volume: 100 μl/well). The plates were incubated at 37° C. for 18-24 hours (S. pneumoniae was grown in a CO2-enriched atmosphere).

SMILES | MIC Bacteroides fragilis (Bacteroides fragilis [1]; first B. fragilis column) [µg/mL] | MIC Bacteroides fragilis (Bacteroides fragilis [1]; second B. fragilis column) [µg/mL] | MIC Bacteroides fragilis (Bacteroides fragilis [1]; third B. fragilis column) [µg/mL] | MIC Bacteroides vulgatus (Bacteroides vulgatus) [µg/mL] | MIC Bacteroides thetaiotaomicron [2] [µg/mL] | MIC S cerevisiae MIC7 (S cerevisiae) [µg/mL] | MIC E coli (ImpA) MIC9 (E coli (ImpA)) [µg/mL] | MIC S pneumoniae MIC6 (S pneumoniae) [µg/mL] | MIC P aeruginosa MIC2 (P aeruginosa) [µg/mL] | MIC E faecalis MIC2 (E faecalis) [µg/mL] | MIC M. catarrhalis MIC2 (M. catarrhalis) [µg/mL] | MIC H influenzae MIC4 (H influenzae) [µg/mL] | MIC E coli MIC2 (E coli) [µg/mL] | MIC S aureus MIC2 (S aureus) [µg/mL] | other results
CCN1CCN(C(=O)N[C@@H](C(=O)N[C@@H]2C(=O)N3[C@@H]2SC(C)(C)[C@@H]3C(=O)O)c2ccccc2)C(=O)C1=O [Piperacillin] | 2 (≈ 3.86 µM) | 16 (≈ 30.9 µM) | 2 (≈ 3.86 µM) | 128 (≈ 247 µM) | 16 (≈ 30.9 µM) |  |  |  |  |  |  |  |  |  | 
O=C1CN(/N=C/c2ccc([N+](=O)[O-])o2)C(=O)N1 [Nitrofurantoin, reference compound] | 2 (≈ 8.4 µM) | 2 (≈ 8.4 µM) | 2 (≈ 8.4 µM) | < 0.125 | 2 (≈ 8.4 µM) |  |  |  |  |  |  |  |  |  | Survival (%) (S. aureus; Study #2, 25 mg/kg IP QD × 3, 6 days observation): 50%; Survival (%) (S. aureus; Study #2, 50 mg/kg IP QD × 3, 6 days observation): 50%; Inhibition zones (Bacteroides fragilis [3]): >25 mm**; Inhibition zones (Clostridium perfringens; Clostridium perfringens (fresh wound isolate)): 21 mm; Inhibition zones (Clostridium perfringens; Clostridium perfringens, diameter includes disk): >25 mm**; MIC (S cerevisiae): > 64 µg/mL; Inhibition zones (Peptostreptococcus sp): 12 mm**; MIC (S pneumoniae): 2 µg/mL (≈ 8.4 µM); MIC (P aeruginosa): > 64 µg/mL; MIC (E faecalis): 4 µg/mL (≈ 16.8 µM); MIC (M. catarrhalis): 2 µg/mL (≈ 8.4 µM); Survival (%) (E. coli; Study #3, 50 mg/kg IP QD × 3, 6 days observation): 0%; Survival (%) (E. coli; Study #3, 75 mg/kg IP QD × 3, 6 days observation): 20%; Survival (%) (E. coli; Study #3, 100 mg/kg IP QD × 3, 6 days observation): 0%; MIC (H influenzae): 4 µg/mL (≈ 16.8 µM); MIC (E coli): 8 µg/mL (≈ 33.6 µM); MIC (S aureus): 16 µg/mL (≈ 67.2 µM)
Cn1c(-c2ccc([N+](=O)[O-])o2)nnc1S(=O)(=O)O [Compound 107, 5-[2-(5-Nitro)furyl]-4-methyl-4H-1,2,4-triazole-3-sulfonic Acid] |  |  |  |  |  |  |  |  |  |  |  |  |  |  | MIC (S cerevisiae): 64 µg/mL (≈ 233 µM); MIC (E coli (ImpA)): 4 µg/mL (≈ 14.6 µM); MIC (S pneumoniae): 32 µg/mL (≈ 117 µM); MIC (P aeruginosa): > 64 µg/mL; MIC (E faecalis): > 64 µg/mL; MIC (M. catarrhalis): 1 µg/mL (≈ 3.65 µM); Survival (%) (E. coli; Study #4, 50 mg/kg IP QD × 3, 6 days observation): 70%; Survival (%) (E. coli; Study #4, 75 mg/kg IP QD × 3, 6 days observation): 90%; MIC (H influenzae): 16 µg/mL (≈ 58.3 µM); MIC (E coli): 2 µg/mL (≈ 7.29 µM); MIC (S aureus): 16 µg/mL (≈ 58.3 µM)
O=[N+]([O-])c1ccc(-c2nnc(S)n2Cc2ccco2)o1 [Compound 125] |  |  |  |  |  | >64 | 4 (≈ 13.7 µM) | 8 (≈ 27.4 µM) | >64 | 64 (≈ 219 µM) | 0.5 (≈ 1.71 µM) | 4 (≈ 13.7 µM) | >64 | 8 (≈ 27.4 µM) | 
COc1cc(Cc2cnc(N)nc2N)cc(OC)c1OC [Trimethoprim, reference compound] |  |  |  |  |  |  |  |  |  |  |  |  |  |  | MIC (S cerevisiae): > 64 µg/mL; MIC (E coli (ImpA)): < 0.12 µg/mL; MIC (S pneumoniae): 8 µg/mL (≈ 27.6 µM); MIC (P aeruginosa): > 64 µg/mL; MIC (E faecalis): < 0.12 µg/mL; MIC (M. catarrhalis): 32 µg/mL (≈ 110 µM); MIC (H influenzae): < 0.12 µg/mL; MIC (E coli): 0.25 µg/mL (≈ 0.861 µM); MIC (S aureus): 2 µg/mL (≈ 6.89 µM)
O=[N+]([O-])c1ccc(-c2nnc(S(=O)(=O)O)n2-c2ccccc2)o1 [Compound 127] |  |  |  |  |  | >64 | 64 (≈ 190 µM) | >64 | >64 | >64 | 32 (≈ 95.2 µM) | >64 | >64 | >64 | 
O=[N+]([O-])c1ccc(-c2nnc(S)n2-c2ccc(Oc3ccccc3)cc2)o1 [Compound 143] |  |  |  |  |  | >64 | <0.12 | 0.5 (≈ 1.31 µM) | >64 | 1 (≈ 2.63 µM) | <0.12 | >64 | >64 | 0.25 (≈ 0.657 µM) | 
O=C(N[C@H](CO)[C@H](O)c1ccc([N+](=O)[O-])cc1)C(Cl)Cl [Chloramphenicol] | 4 (≈ 12.4 µM) | 4 (≈ 12.4 µM) | 4 (≈ 12.4 µM) | < 0.125 | 4 (≈ 12.4 µM) |  |  |  |  |  |  |  |  |  | 
CNS(=O)(=O)c1nnc(-c2ccc([N+](=O)[O-])o2)n1C [Compound 106, 5-[2-(5-Nitro)furyl]-4-methyl-4H-1,2,4-triazole-3-methyl Sulfonamide] |  |  |  |  |  |  |  |  |  |  |  |  |  |  | MIC (S cerevisiae): 64 µg/mL (≈ 223 µM); MIC (E coli (ImpA)): 4 µg/mL (≈ 13.9 µM); MIC (S pneumoniae): 64 µg/mL (≈ 223 µM); MIC (P aeruginosa): > 64 µg/mL; MIC (E faecalis): > 64 µg/mL; MIC (M. catarrhalis): 2 µg/mL (≈ 6.96 µM); MIC (H influenzae): 32 µg/mL (≈ 111 µM); MIC (E coli): 8 µg/mL (≈ 27.8 µM); MIC (S aureus): > 64 µg/mL
CCC[C@@H]1C[C@@H](C(=O)N[C@@H]([C@H]2O[C@H](SC)[C@H](O)[C@@H](O)[C@H]2O)[C@H](C)Cl)N(C)C1 [Clindamycin] | 1 (≈ 2.35 µM) | 1 (≈ 2.35 µM) | 1 (≈ 2.35 µM) | < 0.125 |  |  |  |  |  |  |  |  |  |  | 
O=[N+]([O-])c1ccc(-c2nnc(S(=O)(=O)O)n2C2CCCCC2)o1 [Compound 131] |  |  |  |  |  | >64 | >64 | 64 (≈ 187 µM) | >64 | >64 | 8 (≈ 23.4 µM) | 64 (≈ 187 µM) | >64 | >64 | 
Cn1c(-c2ccc([N+](=O)[O-])o2)nnc1S(=O)(=O)Nc1ccccc1 [Compound 123] |  |  |  |  |  | >64 | 16 (≈ 45.8 µM) | 8 (≈ 22.9 µM) | >64 | 64 (≈ 183 µM) | 1 (≈ 2.86 µM) | 16 (≈ 45.8 µM) | >64 | 64 (≈ 183 µM) | 
O=[N+]([O-])c1ccc(-c2nnc(S)n2-c2cccc(Cl)c2)o1 [Compound 140] |  |  |  |  |  | >64 | 0.5 (≈ 1.55 µM) | 2 (≈ 6.2 µM) | >64 | 16 (≈ 49.6 µM) | <0.12 | 4 (≈ 12.4 µM) | >64 | 1 (≈ 3.1 µM) | 
C[C@@H](O)[C@H]1C(=O)N2C(C(=O)O)=C(SCCN=CN)C[C@H]12 [Imipenem] | < 0.125 | < 0.125 | < 0.125 | < 0.125 | < 0.125 |  |  |  |  |  |  |  |  |  | 
CC[C@H]1OC(=O)[C@H](C)[C@@H](O[C@H]2C[C@@](C)(OC)[C@@H](O)[C@H](C)O2)[C@H](C)[C@@H](O[C@@H]2O[C@H](C)C[C@H](N(C)C)[C@H]2O)[C@](C)(O)C[C@@H](C)CN(C)[C@H](C)[C@@H](O)[C@]1(C)O [Azithromycin] | 4 (≈ 5.34 µM) | 4 (≈ 5.34 µM) | 4 (≈ 5.34 µM) | 1 (≈ 1.34 µM) | 4 (≈ 5.34 µM) |  |  |  |  |  |  |  |  |  | 
